Test [1] concerns range of models. The following applies: once-daily oral administration; cited from earlier work.
The subject of test [2] is HUVEC. Briefly: HUVEC assay, endothelial cell proliferation (WO 00/47212). It counts as cell-based. The following applies: Homo sapiens.
The subject of test [3] is Calu-6 tumour xenograft. Briefly: in vivo solid tumour model, Calu-6 tumour xenograft (WO 00/47212). To be noted: once-daily oral, 28 days.

Read-outs that look alike come from different tables or passages of the source.

On to `COc1cc2c(Oc3ccc4[nH]c(C)cc4c3F)ncnc2cc1OCCCN1CCCC1` [AZD2171, 4-(4-fluoro-2-methyl-1H-indol-5-yloxy)-6-methoxy-7-(3-(pyrrolidin-1-yl)propoxy)quinazoline], for which, in test [1], the “anti-tumour activity in a range of models” value was “broad-spectrum anti-tumour activity”. Moreover, the IC50 in test [2] (HUVEC, basal (unstimulated) proliferation, read-out: IC50 for inhibition of basal endothelial cell proliferation) is more than 500 nM; in test [2] (VEGF-stimulated, HUVEC assay, read-out: IC50 for inhibition of VEGF-stimulated endothelial cell proliferation), 0.4 ± 0.2 nM. Also, the “inhibition of growth of Calu-6 tumour xenograft” value is reported as 49% in test [3] (1.5 mg/kg/day, P<0.01); 69% in test [3] (3 mg/kg/day, P<0.00001); 91% in test [3] (6 mg/kg/day, P<0.00001).
